Assay results published in patent US20040259948A1, “Reciprocal regulation of inflammation and lipid metabolism by liver X receptors” (priority 2003, published 2004).

How the values were obtained:
[1] = test system: atherosclerotic aortas of Apoe−/− mice; assay: Gene expression in atherosclerotic aortas of Apoe−/− mice; format: in vivo; settings: Apoe−/− mice 8 months of age, treated 3 days
Experimental: Next, the influence of LXR agonists on inflammatory gene expression induced by IL-1β and TNFα, which have been implicated in the pathogenesis of atherosclerosis, was tested. […] Gene expression was detected by real-time quantitative PCR assays. […] Total RNA was isolated from individual aortas and gene expression was measured by real-time quantitative PCR. P<0.05 for MMP-9 (*) and P<0.01 (**) for ABCA1. […] Thus, LXR agonist reduces expression of an established inflammatory mediator in the vessel wall. RNA and protein analysis. Total RNA was extracted using Trizol reagent (Life Technologies, Inc.). Northern blot analysis was carried out as described using radiolabeled cDNA probes (Tontonoz, P. et al. 1998 Cell 93:241-252). Real-time quantitative PCR (TaqMan) analysis was performed using an Applied Biosystems 7700 sequence detector. Two-step real-time PCR was performed as described (Joseph, S. B. et al. 2002 J Biol Chem 277:11019-11025). The primers and probes used are as follows: Animals. Mice on a mixed background (C57B1/6 and 129v) and Apoe^−/− mice on a C57B1/6 background were maintained on standard chow. […] Irritant contact dermatitis was induced as described (Sheu, M. Y. et al. 2002 J Invest Dermatol 118:94-101). Briefly, 10 μl of 0.03% 12-O-tetradecanoylphorbol-13-acetate (TPA) in acetone was applied to the left ears of male mice. The right ears were treated with vehicle alone. […] After 18 h of TPA treatment, the thickness and weight of 6-mm punch biopsies were determined. Statistical analysis was performed using Student's t-test. Experiments were conducted in accordance of the Animal Research Committee of the University of California, Los Angeles.

[2] = test system: human aortic endothelial cells; assay: TNF-induced gene expression in human aortic endothelial cells; format: cell-based; settings: TNF 6 hours; real time qPCR
Experimental: (§1) Activation of LXR by synthetic ligands inhibits inflammatory gene expression in multiple human cell types (FIG. 7A-C). TNFα plays a role in the induction of inflammatory mediators in during inflammation. Cells were treated for 6 hours with TNF as indicated and gene expression was measured by real time qPCR.

C57B1/6 mice = assay: Murine model of irritant contact dermatitis (TPA-treated ear); format: in vivo; settings: topical 20 μl of 10 mM at 45 min and 4 h post-TPA; 18 h; relative to vehicle-treated ear
Experimental: The effects of LXR ligands in both acute and chronic inflammatory contexts were evaluated. First, the effects of LXR agonists in a murine model of irritant contact dermatitis (Sheu, M. Y. et al. 2002 J Invest Dermatol 118:94-101) were studied. Ears of C57B1/6 mice (n=5 per group) were treated topically with 12-O-tetradecanoylphorbol-13-acetate (TPA) (left ear) or with vehicle (right ear). […] Thickness and weight of 6-mm punch biopsies were determined for each group after 18 h TPA treatment and are presented relative to vehicle-treated ear. […] Analysis of hematoxylin and eosin (H&E) stained sections of the TPA-treated ears confirmed a reduction in edema and inflammatory infiltrate by LXR agonist. Thus, two structurally unrelated LXR agonists have anti-inflammatory activity in a model of cutaneous inflammation.
Animals. Mice on a mixed background (C57B1/6 and 129v) and Apoe^−/− mice on a C57B1/6 background were maintained on standard chow. […] Irritant contact dermatitis was induced as described (Sheu, M. Y. et al. 2002 J Invest Dermatol 118:94-101). Briefly, 10 μl of 0.03% 12-O-tetradecanoylphorbol-13-acetate (TPA) in acetone was applied to the left ears of male mice. The right ears were treated with vehicle alone. […] After 18 h of TPA treatment, the thickness and weight of 6-mm punch biopsies were determined. Statistical analysis was performed using Student's t-test. Experiments were conducted in accordance of the Animal Research Committee of the University of California, Los Angeles.

[3] = test system: human peripheral blood mononuclear cells; assay: TNF-induced gene expression in human peripheral blood mononuclear cells; format: cell-based; settings: TNF 6 hours; real time qPCR
Experimental: as §1

Structure (SMILES): O=C(O)Cc1cccc(OCCCN(Cc2cccc(C(F)(F)F)c2Cl)CC(c2ccccc2)c2ccccc2)c1 [GW3965]
- expression of ABCA1 in aorta ([1]; real-time quantitative PCR): induced
- expression of macrophage-specific marker CD68 in aorta ([1]; real-time quantitative PCR): did not affect
- expression of MCP-1 in aorta ([1]; versus vehicle): not different
- expression of MMP-9 in aorta ([1]; versus vehicle): substantially reduced
- expression of iNOS in aorta ([1]; versus vehicle): not different
- TNF-induced gene expression [2]: inhibited
- ear thickness (C57B1/6 mice): reduced
- ear weight (6-mm punch biopsies) (C57B1/6 mice): reduced
- TNF-induced gene expression [3]: inhibited
